Laboratory results taken from patent US5310745A, “Antiviral compounds” (priority 1992, dated 1994).

How the values were obtained:
Format in all cases: cell-based
visna virus = experiment: Plaque reduction assay, inhibition of visna virus in vitro; parameters: key to Antiviral Activity: A: active compound; I: inactive compound; conditions: for Antiviral Activity: Table 1; for inhibition at 100 µM / inhibition at 1000 µM / inhibition at 1 µM / inhibition at 10 µM: Visna-maedi virus; for inhibition at 100 µM / inhibition at 1000 µM / inhibition at 1 µM / inhibition at 10 µM / % Plaque Reduction: Table 2; for inhibition at 1 µM: 0.001 mM
From the text: Visna virus, a lentivirus genetically very similar to the AIDS virus, is pathogenic for sheep and goats. See Sonigo et al., Cell 42, 369-382 (1985); Haase, Nature 322, 130-136 (1986). Inhibition of visna virus replication in vitro as a useful model for human immunodeficiency virus (HIV) and its inhibition by test compounds has been described by Franket al., Antimicrobial Agents and Chemotherapy 31 (9), 1369-1374 (1987). The N-butyl derivative of 1,5-dideoxy-1,5-imino-D-glucitol, also referred to as n-butyl-deoxynojirimycin (N-Bu-DNJ), was used as a control standard for comparison with various novel compounds of this invention.
Various compounds as prepared above were tested for inhibition of visna virus in vitro in a plaque reduction assay as follows:
(§1) Sheep choroid plexus (SCP) cells were obtained from American Type Culture Collection (ATCC) catalogue number CRL 1700 and were routinely passaged in vitro in Dulbecco's Modified Eagles (DME) medium supplemented with 20% fetal bovine serum (FBS). SCP cells were passaged once per week at a 1:2 or 1:3 split ratio. Visna was titrated by plaque assay in six-well plates. Virus pools were stored at -70° C.
(§2) SCP cells were cultured in 6-well plates to confluence. Wells were washed two times with serum free Minimal Essential Medium (MEM) to remove FBS. 0.2 ml of virus was added per well in MEM supplemented with 4 mM glutamine and gentamycin. After 1 hour adsorption, the virus was aspirated from each well. The appropriate concentration of each compound in 5 ml of Medium 199 (M-199) supplemented With 2% lamb serum, 4 mM glutamine, 0.5% agarose and gentamycin was added to each well. Cultures were incubated at 37° C. in a humidified 5% CO2 incubator for 3-4 weeks. To terminate the test: cultures were fixed in 10% formalin, the agar removed, the monolayers stained with 1% crystal violet and plaques counted. Each compound concentration was run in triplicate. […] 0 is no toxicity observed while 4 is total lysing of the cell monolayer.

[1] = system: Sheep choroid plexus (SCP) cells; experiment: Toxicity of compounds in control wells without virus, graded morphologically; parameters: key: 0: no toxicity; 4: total cell lysates; conditions: 0 to 4 scale, Table 1
Procedure: as §1, §2

[2] = system: Sheep choroid plexus (SCP) cells; experiment: as above; conditions: graded 0 to 4, Table 2
Procedure: as §1, §2

[3] = system: Sheep choroid plexus (SCP) cells; experiment: as above; parameters: key: 0: no toxicity observed; 4: total lysing of the cell monolayer; conditions: graded 0 to 4, Table 2
Procedure: as §1, §2

For `CCCCN1C[C@H](OC(=O)C(C)C)[C@@H](OC(=O)C(C)C)[C@H](OC(=O)C(C)C)[C@H]1COC(=O)C(C)C` [Example 22, 1,5-(Butylimino)-1,5-dideoxy-D-glucitol, tetraisobutyrate], the “Antiviral Activity” value (visna virus; 0.01 mM) was “A”, the “Antiviral Activity” value (visna virus; 0.1 mM) was “A” and the “Antiviral Activity” value (visna virus; 1.0 mM) was “A”. The Toxicity ([1]; 0.01 mM) was 0, the Toxicity ([1]; 0.1 mM) was 0 and the Toxicity ([1]; 1.0 mM) was 0.

In the case of `CC(=O)OC[C@H]1NC[C@H](OC(C)=O)[C@@H](OC(C)=O)[C@@H]1OC(C)=O` [Example 3, 1,5-Dideoxy-1,5-imino-D-glucitol, tetraacetate], the “Antiviral Activity” value (visna virus; 0.5 mM) is reported as “A”, the “Antiviral Activity” value (visna virus; 1.0 mM) is reported as “A” and the Toxicity ([1]; 0.5 mM) is reported as 0. The Toxicity ([1]; 1.0 mM) was 0.

With `CC(=O)OC[C@@H]1[C@@H](OC(C)=O)[C@H](OC(C)=O)[C@@H](OC(C)=O)CN1C(=O)c1ccccc1` [Example 5, 1,5-(Benzoylimino)-1,5-dideoxy-D-glucitol, tetraacetate] the “Antiviral Activity” value (visna virus; 0.1 mM) was “A”, the “Antiviral Activity” value (visna virus; 0.5 mM) was “A” and the “Antiviral Activity” value (visna virus; 1.0 mM) was “A”. The Toxicity ([1]; 0.1 mM) was 0, the Toxicity ([1]; 0.5 mM) was 0 and the Toxicity ([1]; 1.0 mM) was 0.

In the case of `CC(=O)OC[C@@H]1[C@@H](OC(C)=O)[C@H](OC(C)=O)[C@@H](OC(C)=O)CN1C(=O)Cc1ccccc1` [Example 4, 1,5-(Phenylacetylimino)-1,5-dideoxy-D-glucitol-tetraacetate], the “Antiviral Activity” value (visna virus; 0.5 mM) is reported as “A”, the “Antiviral Activity” value (visna virus; 1.0 mM) is reported as “A” and the Toxicity ([1]; 0.5 mM) is reported as 0. It also gave a Toxicity ([1]; 1.0 mM) of 0.

For `CCCCN1C[C@H](OC(C)=O)[C@@H](OC(C)=O)[C@@H]2O[C@H](c3ccccc3)OC[C@H]21` [Example 24, 1,5-(Butylimino)-1,5-dideoxy-4R,6-O-(phenylmethylene)-D-glucitol, diacetate], the “Antiviral Activity” value (visna virus; 1.0 mM) was “A” and the Toxicity ([1]; 1.0 mM) was 0.

`CC(=O)OC[C@@H]1[C@@H](OC(C)=O)[C@H](OC(C)=O)[C@@H](OC(C)=O)CN1CCCC(F)(F)F` [Example 63, 1,5-(4,4,4-Trifluorobutylimino)-1,5-dideoxy-D-glucitol, tetraacetate] was tested, and the inhibition at 100 µM (visna virus; 0.1 mM) was 2%, the inhibition at 1000 µM (visna virus; 1.0 mM) was 90% and the Toxicity ([2]; 1.0 mM) was 2. For the same compound, the Toxicity ([3]; 0.1 mM) was 0.

`CCCCN1C[C@H](OC(=O)C(C)(C)C)[C@@H](O)[C@H](OC(=O)C(C)(C)C)[C@H]1COC(=O)C(C)(C)C` [Example 50B] was tested, and the inhibition at 1 µM (visna virus) was 17%, the inhibition at 10 µM (visna virus; 0.01 mM) was 33% and the inhibition at 100 µM (visna virus; 0.1 mM) was 75%. For the same compound, the inhibition at 1000 µM (visna virus; 1.0 mM) was 76%, the Toxicity ([2]; 0.1 mM) was 1 and the Toxicity ([2]; 1.0 mM) was 2. It also gave a Toxicity ([3]; 0.001 mM) of 0 and a Toxicity ([3]; 0.01 mM) of 0.

In the case of `CCCCN1C[C@H](OC(C)=O)[C@@H](OC(C)=O)[C@H](OC(C)=O)[C@H]1COC(C)=O` [Example 7, 1,5-(Butylimino)-1,5-dideoxy-D-glucitol, tetraacetate], the “Antiviral Activity” value (visna virus; 0.1 mM) is reported as “A”, the “Antiviral Activity” value (visna virus; 0.5 mM) is reported as “A” and the “Antiviral Activity” value (visna virus; 1.0 mM) is reported as “A”. It also gave a Toxicity ([1]; 0.1 mM) of 0, a Toxicity ([1]; 0.5 mM) of 0 and a Toxicity ([1]; 1.0 mM) of 0.

For `CCCCCCCCCCc1ccc(C(=O)N2C[C@H](OC(C)=O)[C@@H](OC(C)=O)[C@H](OC(C)=O)[C@H]2COC(C)=O)cc1` [Example 47, 1,5-[(4-Decylbenzoyl)imino]-1,5-dideoxy-D-glucitol, tetraacetate], the “% Plaque Reduction” value (visna virus; 1.0 mM) was “Toxic”, the inhibition at 1 µM (visna virus) was 9% and the inhibition at 10 µM (visna virus; 0.01 mM) was 64%. The inhibition at 100 µM (visna virus; 0.1 mM) was 86%, the Toxicity ([2]; 0.1 mM) was 1 and the Toxicity ([3]; 0.001 mM) was 0. It also gave a Toxicity ([3]; 0.01 mM) of 0 and a Toxicity ([3]; 1.0 mM) of 4.

`CCCCN1C[C@H](OC(C)=O)[C@@H](OC(C)=O)[C@H](O)[C@H]1CO` [Example 28, 1,5-(Butylimino)-1,5-dideoxy-D-glucitol, 2,3-diacetate] was tested, and the inhibition at 100 µM (visna virus; 0.1 mM) was 44%, the inhibition at 1000 µM (visna virus; 1.0 mM) was 87% and the Toxicity ([2]; 0.1 mM) was 2. The Toxicity ([3]; 1.0 mM) was 4.

With `CCCCN1C[C@H](OC(=O)CCC)[C@@H](OC(=O)CCC)[C@H](O)[C@H]1CO` [Example 38, 1,5-(Butylimino)-1,5-dideoxy-D-glucitol, 2,3-dibutyrate] the “% Plaque Reduction” value (visna virus; 1.0 mM) was “Toxic”, the inhibition at 1 µM (visna virus) was 47% and the inhibition at 10 µM (visna virus; 0.01 mM) was 54%. For the same compound, the inhibition at 100 µM (visna virus; 0.1 mM) was 80%, the Toxicity ([2]; 0.1 mM) was 2 and the Toxicity ([3]; 0.001 mM) was 0. The Toxicity ([3]; 0.01 mM) was 0 and the Toxicity ([3]; 1.0 mM) was 4.
